From ChEMBL document CHEMBL5532697, “Imidazopyrimidine: from a relatively exotic scaffold to an evolving structural motif in drug discovery” (RSC Med Chem, 2024)
In brackets after ≈: the same amount, converted by molar mass.

Legend:
MCF7 = assay: Antiproliferative activity against human MCF7 cells assessed as inhibition of cell growth incubated for 48 hrs by alamarblue staining based assay; format: functional; conditions: MCF7, 48 h
COLO 205 = assay: Antiproliferative activity against human COLO 205 cells assessed as inhibition of cell growth incubated for 48 hrs by alamarblue staining based assay; format: functional; conditions: COLO 205, 48 h
A549 [1] = assay: Antiproliferative activity against human A549 cells assessed as inhibition of cell growth incubated for 48 hrs by alamarblue staining based assay; format: functional; conditions: A549, 48 h
Pyruvate kinase PKM = Pyruvate kinase PKM (Homo sapiens, UniProt P14618); assay: Inhibition of recombinant PKM2 (unknown origin)
[2] = target: cAMP and cAMP-inhibited cGMP 3',5'-cyclic phosphodiesterase 10A (Homo sapiens, UniProt Q9Y233); assay: Inhibition of full length human PDE10A incubated for 1 hr by topcount Scintillation plate reader analysis
CCRF-CEM = assay: Antiproliferative activity against human CCRF-CEM cells assessed as inhibition of cell growth incubated for 72 hrs by MTT assay; format: functional, cell-based
K562 = assay: Antiproliferative activity against human K562 cells assessed as inhibition of cell growth incubated for 72 hrs by MTT assay; format: functional, cell-based; conditions: K562, 72 h
A549 [3] = assay: Antiproliferative activity against human A549 cells assessed as inhibition of cell growth incubated for 72 hrs by MTT assay; format: functional, cell-based; conditions: A549, 72 h
HCT-116 = assay: Antiproliferative activity against human HCT-116 cells assessed as inhibition of cell growth incubated for 72 hrs by MTT assay; format: functional, cell-based; conditions: HCT-116, 72 h
CEM-DNR = assay: Antiproliferative activity against human CEM-DNR cells assessed as inhibition of cell growth incubated for 72 hrs by MTT assay; format: functional, cell-based
Candida albicans [4] = assay: Antifungal activity against Candida albicans ATCC 10231 assessed as reduction in fungal growth incubated for 24 hrs by CLSI based assay; format: functional
Candida dubliniensis = assay: Antifungal activity against Candida dubliniensis CD36 assessed as reduction in fungal growth incubated for 24 hrs by CLSI based assay; format: functional
[5] = test system: Meyerozyma guilliermondii; assay: Antifungal activity against Meyerozyma guilliermondii assessed as reduction in fungal growth incubated for 24 hrs by CLSI based assay; format: functional
Kluyveromyces marxianus [6] = assay: Antifungal activity against Candida kefyr assessed as reduction in fungal growth incubated for 24 hrs by CLSI based assay; format: functional
Nakaseomyces glabratus = assay: Antifungal activity against Candida glabrata CBS138 assessed as reduction in fungal growth incubated for 24 hrs by CLSI based assay; format: functional
Pichia kudriavzevii = assay: Antifungal activity against Candida krusei ATCC 6358 assessed as reduction in fungal growth incubated for 24 hrs by CLSI based assay; format: functional
Candida tropicalis = assay: Antifungal activity against Candida tropicalis MYA-3404 assessed as reduction in fungal growth incubated for 24 hrs by CLSI based assay; format: functional
A549 [7] = assay: Antiproliferative activity against human A549 cells assessed as inhibition of cell growth by MTT assay; format: functional, cell-based
Albumin = Albumin (Homo sapiens, UniProt P02768); assay: Inhibition of Albumin (unknown origin) denaturation at 100 uM relative to control
BK polyomavirus = assay: Antiviral activity against BK polyomavirus MM infected in human HFF cells assessed as reduction in viral growth incubated for 7 days; format: functional, organism-based; conditions: Betapolyomavirus hominis, 168 h
[8] = Cytotoxicity against human HFF cells assessed as cell growth inhibition by celltiter-glo assay; format: toxicity, cell-based
Aorta = assay: Vasorelaxant activity in rabbit aorta assessed as inhibition of phenylephrine-induced contraction; format: functional, tissue-based; conditions: Oryctolagus cuniculus
Candida albicans [9] = assay: Antifungal activity against Candida albicans NCPF 400034 assessed as inhibition of fungal growth incubated for 48 hrs; format: functional
Kluyveromyces marxianus [10] = assay: Antifungal activity against Candida keyfer […] 410004 assessed as inhibition of fungal growth incubated for 48 hrs; format: functional
Cryptococcus neoformans = assay: Antifungal activity against Cryptococcus neoformans NCPF 250316 assessed as inhibition of fungal growth incubated for 48 hrs; format: functional
Aspergillus niger = assay: Antifungal activity against Aspergillus niger assessed as inhibition of fungal growth incubated for 48 hrs; format: functional
Neurospora crassa = assay: Antifungal activity against Neurospora crassa assessed as inhibition of fungal growth incubated for 48 hrs; format: functional

Chain of Pyruvate kinase PKM (P14618 whole entry): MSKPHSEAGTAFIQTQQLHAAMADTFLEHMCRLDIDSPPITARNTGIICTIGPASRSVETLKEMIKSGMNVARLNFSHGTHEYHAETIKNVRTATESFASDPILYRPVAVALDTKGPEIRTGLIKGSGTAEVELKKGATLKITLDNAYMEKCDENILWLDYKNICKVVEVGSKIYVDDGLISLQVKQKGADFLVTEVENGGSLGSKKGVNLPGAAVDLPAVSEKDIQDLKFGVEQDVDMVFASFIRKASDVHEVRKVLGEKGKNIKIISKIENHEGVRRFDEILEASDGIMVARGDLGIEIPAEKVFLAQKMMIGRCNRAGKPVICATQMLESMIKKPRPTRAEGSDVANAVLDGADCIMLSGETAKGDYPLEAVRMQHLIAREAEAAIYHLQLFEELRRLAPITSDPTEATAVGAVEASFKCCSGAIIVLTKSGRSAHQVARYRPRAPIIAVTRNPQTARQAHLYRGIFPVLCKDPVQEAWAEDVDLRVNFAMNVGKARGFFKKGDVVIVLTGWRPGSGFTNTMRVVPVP
Chain of cAMP and cAMP-inhibited cGMP 3',5'-cyclic phosphodiesterase 10A (Q9Y233 whole entry): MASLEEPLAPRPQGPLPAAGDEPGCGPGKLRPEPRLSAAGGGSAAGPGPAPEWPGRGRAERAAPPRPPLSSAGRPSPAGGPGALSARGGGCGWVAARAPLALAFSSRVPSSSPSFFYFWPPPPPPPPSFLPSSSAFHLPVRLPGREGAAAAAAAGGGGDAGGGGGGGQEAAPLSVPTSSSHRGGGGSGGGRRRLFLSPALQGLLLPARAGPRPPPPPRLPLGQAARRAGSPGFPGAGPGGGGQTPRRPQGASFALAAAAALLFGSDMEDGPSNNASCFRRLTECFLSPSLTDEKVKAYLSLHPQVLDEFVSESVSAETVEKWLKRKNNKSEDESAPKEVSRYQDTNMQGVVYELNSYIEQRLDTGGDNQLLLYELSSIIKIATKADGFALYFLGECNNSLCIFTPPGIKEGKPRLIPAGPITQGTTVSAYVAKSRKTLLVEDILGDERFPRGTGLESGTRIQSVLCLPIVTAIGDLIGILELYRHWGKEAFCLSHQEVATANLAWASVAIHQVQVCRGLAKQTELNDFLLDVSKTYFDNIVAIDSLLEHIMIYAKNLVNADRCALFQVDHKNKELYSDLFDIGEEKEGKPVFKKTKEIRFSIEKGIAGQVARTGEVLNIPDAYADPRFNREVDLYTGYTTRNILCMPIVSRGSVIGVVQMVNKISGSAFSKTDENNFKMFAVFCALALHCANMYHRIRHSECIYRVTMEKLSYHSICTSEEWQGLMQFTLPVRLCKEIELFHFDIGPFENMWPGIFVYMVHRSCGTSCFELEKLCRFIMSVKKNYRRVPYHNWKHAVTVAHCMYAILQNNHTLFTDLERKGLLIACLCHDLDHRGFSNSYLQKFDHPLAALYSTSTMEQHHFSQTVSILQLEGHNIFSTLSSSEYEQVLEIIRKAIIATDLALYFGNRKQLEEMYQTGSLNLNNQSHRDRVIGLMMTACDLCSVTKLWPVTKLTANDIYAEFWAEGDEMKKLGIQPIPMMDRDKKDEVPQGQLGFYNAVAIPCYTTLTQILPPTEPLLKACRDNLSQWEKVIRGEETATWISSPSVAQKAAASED
Chain of Albumin (P02768 whole entry): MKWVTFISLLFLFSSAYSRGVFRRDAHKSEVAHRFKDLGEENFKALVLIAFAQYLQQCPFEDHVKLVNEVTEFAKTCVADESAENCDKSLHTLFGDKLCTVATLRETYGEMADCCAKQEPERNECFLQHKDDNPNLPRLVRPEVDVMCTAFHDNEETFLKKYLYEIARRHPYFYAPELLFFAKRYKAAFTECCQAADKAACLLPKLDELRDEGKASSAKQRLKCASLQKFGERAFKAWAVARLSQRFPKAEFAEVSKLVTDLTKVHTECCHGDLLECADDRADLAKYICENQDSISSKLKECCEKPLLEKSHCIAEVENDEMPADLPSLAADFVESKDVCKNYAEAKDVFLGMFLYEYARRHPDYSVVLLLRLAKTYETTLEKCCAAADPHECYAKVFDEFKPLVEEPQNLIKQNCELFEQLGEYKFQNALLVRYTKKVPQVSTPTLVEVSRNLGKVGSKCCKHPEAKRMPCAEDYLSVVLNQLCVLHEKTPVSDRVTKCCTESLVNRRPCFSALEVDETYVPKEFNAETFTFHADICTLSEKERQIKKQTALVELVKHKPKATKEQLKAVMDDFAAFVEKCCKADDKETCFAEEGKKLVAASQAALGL

## O=C(CN1CCN(c2ncccn2)CC1)c1cnc2ncccn12
MCF7
  IC50: 14.7 µM
COLO 205
  IC50: 65.8 µM
A549 [1]
  IC50: 24.4 µM
Pyruvate kinase PKM
  IC50: 0.45 µM

## Cc1c(C(=O)N2CCC2)cnn1C(=O)Nc1ccn2cc(-c3ccccc3)nc2n1
[2]
  IC50: 0.003 µM

## N#Cc1ccc(-c2c[nH]c(=O)n3ccnc23)cc1
CCRF-CEM
  IC50: 1.45 µM
K562
  IC50: 17.7 µM
A549 [3]
  IC50: 5.07 µM
HCT-116
  IC50: 42.5 µM
CEM-DNR
  IC50: 18.8 µM

## O=C(c1ccccc1)c1cnc2ncccn12
Candida albicans [4]
  MIC: 0.125 µg/mL (≈ 0.56 µM)
Candida dubliniensis
  MIC: 0.062 µg/mL (≈ 0.278 µM)
[5]
  MIC: 0.062 µg/mL (≈ 0.278 µM)
Kluyveromyces marxianus [6]
  MIC: 0.125 µg/mL (≈ 0.56 µM)
Nakaseomyces glabratus
  MIC: 0.062 µg/mL (≈ 0.278 µM)
Pichia kudriavzevii
  MIC: 0.5 µg/mL (≈ 2.24 µM)
Candida tropicalis
  MIC: 0.5 µg/mL (≈ 2.24 µM)

## N#Cc1ccccc1N1CCN(CC(=O)c2cnc3ncccn23)CC1
MCF7
  IC50: 11 µM
COLO 205
  IC50: 64.8 µM
A549 [1]
  IC50: 27.9 µM
Pyruvate kinase PKM
  IC50: 1.2 µM

## CC(=O)NC1(Cc2c[nH]c3ccc(Br)cc23)C(=O)N=C2N=CC=CN21 (stereo not drawn)
A549 [7]
  IC50: 1.4 µM

## CCOC(=O)c1ccc(-c2cn3cccnc3n2)cc1
Albumin
  inhibition at 100 µM: 54.2%

## CS(=O)(=O)C1=CNC(=O)N2CCN=C12
BK polyomavirus
  EC50: 22.4 µM
[8]
  CC50: > 150 µM

## Cc1c(C(=O)N2CCC2)cnn1CC(=O)Nc1ccn2cc(-c3ccccc3)nc2n1
[2]
  IC50: 0.004 µM

## Cc1c(C(=O)N2CC=CC2)cnn1C(=O)Nc1ccn2cc(-c3ccccc3)nc2n1
[2]
  IC50: 0.009 µM

## COc1ccc(C(=O)N2CCN(CC(=O)c3cnc4ncccn34)CC2)cc1
MCF7
  IC50: 11.6 µM
COLO 205
  IC50: 44.9 µM
A549 [1]
  IC50: 24 µM
Pyruvate kinase PKM
  IC50: 0.314 µM

## Cc1ccc(N2CCN(CC(=O)c3cnc4ncccn34)CC2)cc1
MCF7
  IC50: 14.5 µM
COLO 205
  IC50: 57.8 µM
A549 [1]
  IC50: 27.1 µM
Pyruvate kinase PKM
  IC50: 0.06 µM

## Nc1nc(N)nc(-c2nc(Cc3ccccc3F)c3ncccn23)n1
Aorta
  IC50: 0.215 µM

## O=C(CN1CCN(c2ccco2)CC1)c1cnc2ncccn12
MCF7
  IC50: 10.9 µM
COLO 205
  IC50: 61 µM
A549 [1]
  IC50: 19.4 µM
Pyruvate kinase PKM
  IC50: 0.31 µM

## O=C(O)c1ccccc1Nc1c(Cl)cccc1Cl
Albumin
  inhibition at 100 µM: 84.7%

## O=C(CN1CCN(C(=O)c2ccc(Cl)cc2)CC1)c1cnc2ncccn12
MCF7
  IC50: 11.8 µM
COLO 205
  IC50: 28 µM
A549 [1]
  IC50: 25.3 µM
Pyruvate kinase PKM
  IC50: 1.86 µM

## O=c1[nH]cc(-c2ccc(-c3ccccc3)cc2)c2nccn12
CCRF-CEM
  IC50: 8.59 µM
K562
  IC50: 15.2 µM
A549 [3]
  IC50: 10.1 µM
CEM-DNR
  IC50: 2.84 µM

## CC(=O)NC1(Cc2ccc(N)cc2)C(=O)N=C2N=CC=CN21 (stereo not drawn)
A549 [7]
  IC50: 3.2 µM

## Cc1ccc(C(=O)c2cnc3ncccn23)cc1
Candida albicans [4]
  MIC: 0.12 µg/mL (≈ 0.506 µM)
Candida dubliniensis
  MIC: 0.25 µg/mL (≈ 1.05 µM)
[5]
  MIC: 0.062 µg/mL (≈ 0.261 µM)
Kluyveromyces marxianus [6]
  MIC: 0.5 µg/mL (≈ 2.11 µM)
Nakaseomyces glabratus
  MIC: 0.062 µg/mL (≈ 0.261 µM)
Pichia kudriavzevii
  MIC: 0.5 µg/mL (≈ 2.11 µM)
Candida tropicalis
  MIC: 0.25 µg/mL (≈ 1.05 µM)

## C[C@@H]1[C@H](O)[C@@H](C)/C=C/C=C/C=C/C=C/C=C/C=C/C=C/[C@H](O[C@@H]2O[C@H](C)[C@@H](O)[C@H](N)[C@@H]2O)C[C@@H]2O[C@](O)(C[C@@H](O)C[C@@H](O)[C@H](O)CC[C@@H](O)C[C@@H](O)CC(=O)O[C@H]1C)C[C@H](O)[C@H]2C(=O)O [AMPHOTERICIN B]
Candida albicans [9]
  MIC: 0.78 µg/mL (≈ 0.844 µM)
Kluyveromyces marxianus [10]
  MIC: 12.5 µg/mL (≈ 13.5 µM)
Cryptococcus neoformans
  MIC: 0.2 µg/mL (≈ 0.216 µM)
Aspergillus niger
  MIC: 0.39 µg/mL (≈ 0.422 µM)
Neurospora crassa
  MIC: 0.39 µg/mL (≈ 0.422 µM)

## Nc1ccn(C[C@@H](CO)OCP(=O)(O)O)c(=O)n1 [CIDOFOVIR ANHYDROUS]
BK polyomavirus
  EC50: 0.24 µM
[8]
  CC50: > 150 µM

## CC(C)(C)c1nc(-c2cccc(NS(=O)(=O)c3c(F)cccc3F)c2F)c(-c2ccnc(N)n2)s1 [DABRAFENIB]
A549 [7]
  IC50: 0.003 µM

## OC(Cn1cncn1)(Cn1cncn1)c1ccc(F)cc1F [FLUCONAZOLE]
Candida albicans [4]
  MIC: 0.5 µg/mL (≈ 1.63 µM)
Candida dubliniensis
  MIC: 0.5 µg/mL (≈ 1.63 µM)
[5]
  MIC: 1 µg/mL (≈ 3.27 µM)
Kluyveromyces marxianus [6]
  MIC: 1 µg/mL (≈ 3.27 µM)
Pichia kudriavzevii
  MIC: 4 µg/mL (≈ 13.1 µM)
Candida tropicalis
  MIC: 1 µg/mL (≈ 3.27 µM)

## CC(=O)N1CCN(c2ccc(OCC3COC(Cn4ccnc4)(c4ccc(Cl)cc4Cl)O3)cc2)CC1 (stereo not drawn) [KETOCONAZOLE]
Candida albicans [4]
  MIC: 8 µg/mL (≈ 15.1 µM)
Candida dubliniensis
  MIC: 2 µg/mL (≈ 3.76 µM)
[5]
  MIC: 0.125 µg/mL (≈ 0.235 µM)
Kluyveromyces marxianus [6]
  MIC: 0.25 µg/mL (≈ 0.47 µM)
Nakaseomyces glabratus
  MIC: 0.25 µg/mL (≈ 0.47 µM)
Pichia kudriavzevii
  MIC: 1 µg/mL (≈ 1.88 µM)
Candida tropicalis
  MIC: 2 µg/mL (≈ 3.76 µM)
